Results taken from US20100204202A1, “DRUG FOR ALLEVIATING MOTOR COMPLICATIONS OR PSYCHIATRIC SYMPTOMS OF PARKINSON'S DISEASE” (Asubio Pharma Co., Ltd., priority 2007, published 2010).
Entries after “also recorded” stand apart in the source; their conditions may differ. Where a name gives a salt, the structure may show the parent alone. Read-outs that look alike come from different tables or passages of the source.

Experiments:
[1] = target: T1, human dopamine D2S receptors (Homo sapiens, UniProt P14416); assay: Agonist/antagonist assay, [35S]GTPgammaS binding, human dopamine D2S receptors; assay type: biochemical; conditions: for EC50 / Emax / IC50: Dopamine D2S; for antagonist activity (in words): human dopamine D2S receptors
T1 construct: expressed in transfected cells; host or cells: CHO
T1 sequence (P14416 1-414 isoform P14416-2): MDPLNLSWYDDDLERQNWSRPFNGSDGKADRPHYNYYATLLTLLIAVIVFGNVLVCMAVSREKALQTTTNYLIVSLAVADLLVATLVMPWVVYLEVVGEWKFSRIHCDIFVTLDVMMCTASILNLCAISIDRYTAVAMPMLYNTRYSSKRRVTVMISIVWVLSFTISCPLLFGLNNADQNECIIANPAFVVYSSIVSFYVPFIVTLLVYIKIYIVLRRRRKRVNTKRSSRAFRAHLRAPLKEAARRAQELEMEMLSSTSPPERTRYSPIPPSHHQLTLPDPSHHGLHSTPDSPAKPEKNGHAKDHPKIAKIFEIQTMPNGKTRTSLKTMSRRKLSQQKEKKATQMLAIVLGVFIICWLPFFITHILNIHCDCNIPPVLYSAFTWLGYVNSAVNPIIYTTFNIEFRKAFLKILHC
Experimental: (§1) For the tests, membrane specimens prepared from Chinese hamster ovary (CHO-K1) cells expressing human serotonin 1A receptors, Chinese hamster ovary (CHO) cells expressing human dopamine D2L receptors, Chinese hamster ovary (CHO) cells expressing human dopamine D2S receptors and Chinese hamster ovary (CHO) cells expressing human dopamine D3 receptors were used. In the agonist assays, for the serotonin 1A receptors, [^35S] GTPγS (final concentration 0.1 nM), a GDP solution (final concentration 3 μM), the test sample solution and a membrane specimen were added to a 20 mM Hepes-NaOH buffer (pH 7.4) containing 100 mM NaCl, 3 mM MgCl2 and 10 μg/mL saponin and allowed to react at 25° C. for 30 minutes. Further, for the dopamine (D2L, D2S and D3) receptors, [^35S] GTPγS (i.e., final concentration 0.1 nM), a GDP solution (final concentration 3 μM), the test sample solution and a membrane specimen were added to a 20 mM Hepes-NaOH buffer (pH 7.4) containing 100 mM NaCl, 10 mM MgCl2, 1 mM DTT and 1 mM EDTA and allowed to react at 30° C. for 15 minutes (in the case of D2L receptors) or for 30 minutes (in the cases of D2S and D3 receptors). Further, in the antagonist assays, except for adding to the reaction solutions 10 μM 5-carboxamide tryptamine (5-CT) (in the case of serotonin 1A receptors), 3 μM dopamine (in the cases of D2L and D2S receptors), or 0.1 μM dopamine (in the case of D3 receptors), operations were performed similar to the agonistic tests. After the end of the reaction, the reaction solution was filtered with a cell harvester, the filtered filter paper was transferred to a measurement vial, a liquid scintillator was added, and the radioactivity of the [^35S] GTPγS remaining on the filter paper was determined by a liquid scintillation counter. The human serotonin 1A receptor and human dopamine (D2L, D2S, and D3) receptor agonist/antagonist activities of the test sample were expressed as the rates of increase, when making the increase in [^35S] GTPγS bonds due to 10 μM 5-CT (in the case of serotonin 1A receptors), 3 μM dopamine (in the cases of D2L and D2S receptors), or 0.1 μM dopamine (in the case of D3 receptors) 100%. From the bond increasing rate, a regression formula was used to calculate the 50% reaction concentration (EC50) and 50% inhibition concentration (IC50).

[2] = target: T2, human dopamine D2L receptors (Homo sapiens, UniProt P14416); assay: Agonist/antagonist assay, [35S]GTPgammaS binding, human dopamine D2L receptors; assay type: biochemical; conditions: for EC50 / Emax / IC50: Dopamine D2L; for antagonist activity (in words): human dopamine D2L receptors
T2 construct: expressed in transfected cells; host or cells: CHO
T2 sequence (P14416 whole entry): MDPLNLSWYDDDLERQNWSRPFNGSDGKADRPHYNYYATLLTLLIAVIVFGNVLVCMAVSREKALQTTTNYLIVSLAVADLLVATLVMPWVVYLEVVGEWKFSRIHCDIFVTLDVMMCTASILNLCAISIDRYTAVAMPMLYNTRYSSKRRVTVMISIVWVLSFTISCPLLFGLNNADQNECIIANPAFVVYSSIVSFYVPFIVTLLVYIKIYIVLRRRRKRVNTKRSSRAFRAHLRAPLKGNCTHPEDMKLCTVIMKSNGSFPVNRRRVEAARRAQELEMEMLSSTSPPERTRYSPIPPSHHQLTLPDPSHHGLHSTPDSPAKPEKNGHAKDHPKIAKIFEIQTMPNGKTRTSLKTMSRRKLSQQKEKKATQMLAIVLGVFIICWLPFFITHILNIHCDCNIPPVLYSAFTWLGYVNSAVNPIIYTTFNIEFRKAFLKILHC
Experimental: as §1

[3] = target: T3, human dopamine D3 receptors (Homo sapiens, UniProt P35462); assay: Agonist/antagonist assay, [35S]GTPgammaS binding, human dopamine D3 receptors; assay type: biochemical; conditions: for agonist activity (in words) / antagonist activity (in words): human dopamine D3 receptors
T3 construct: expressed in transfected cells; host or cells: CHO
T3 sequence (P35462 whole entry): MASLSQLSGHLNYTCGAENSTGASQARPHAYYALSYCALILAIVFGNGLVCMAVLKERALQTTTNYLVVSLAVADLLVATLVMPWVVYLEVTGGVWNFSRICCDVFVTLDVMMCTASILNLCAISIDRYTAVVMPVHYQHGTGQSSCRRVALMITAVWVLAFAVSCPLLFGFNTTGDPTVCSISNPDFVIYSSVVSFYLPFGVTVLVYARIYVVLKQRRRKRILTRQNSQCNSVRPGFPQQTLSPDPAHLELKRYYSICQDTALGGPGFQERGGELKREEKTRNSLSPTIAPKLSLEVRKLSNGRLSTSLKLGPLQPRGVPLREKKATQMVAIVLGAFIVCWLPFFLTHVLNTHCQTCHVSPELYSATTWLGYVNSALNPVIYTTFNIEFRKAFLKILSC
Experimental: as §1

[4] = target: T4, human serotonin 1A receptors (Homo sapiens, UniProt P08908); assay: Agonist/antagonist assay, [35S]GTPgammaS binding, human serotonin 1A receptors; assay type: biochemical; conditions: for EC50 / Emax / IC50: Serotonin 1A; for agonist activity (in words): human serotonin 1A receptors
T4 construct: expressed in transfected cells; host or cells: CHO-K1
T4 sequence (P08908 1-422): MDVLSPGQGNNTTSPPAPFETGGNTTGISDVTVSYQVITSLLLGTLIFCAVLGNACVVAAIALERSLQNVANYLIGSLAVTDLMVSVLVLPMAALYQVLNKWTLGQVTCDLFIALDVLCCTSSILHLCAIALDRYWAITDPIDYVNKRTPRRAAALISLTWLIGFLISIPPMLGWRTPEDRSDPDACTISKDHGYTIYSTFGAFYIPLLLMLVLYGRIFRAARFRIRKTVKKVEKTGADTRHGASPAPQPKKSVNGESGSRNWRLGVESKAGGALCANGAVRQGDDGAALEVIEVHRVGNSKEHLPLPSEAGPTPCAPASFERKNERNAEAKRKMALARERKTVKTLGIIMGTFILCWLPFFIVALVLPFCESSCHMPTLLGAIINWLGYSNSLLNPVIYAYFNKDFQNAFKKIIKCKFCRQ
Experimental: as §1

[5] = target: T3, human dopamine D3 receptors; assay: Binding affinity test on human dopamine D3 receptors ([3H]spiperone, CHO membranes); conditions: for binding affinity (in words): human dopamine D3 receptors
Experimental: For the test, membrane specimens prepared from Chinese hamster ovary (CHO) cells expressing human dopamine D3 receptors were used. To a 50 mM Tris-HCl buffer (pH 7.4) containing 1.4 mM ascorbic acid, 0.001% BSA, and 150 mM NaCl, [^3H] spiperone (final concentration 0.7 nM), the test sample solution and a membrane specimens were added. The reaction solution was allowed to react at 37° C. for 2 hours, then the reaction solution was filtered with a cell harvester, the filtered filter paper was transferred to a measurement vial, a liquid scintillator was added and the receptor bond radioactivity remaining on the filter paper was determined by a liquid scintillation counter.
The following formula was used to calculate the binding inhibition rate: […]
Furthermore, the inhibition constant (Ki) was calculated.

[6] = 3 μM dopamine = 100%, read-out: Agonist assay Emax
[7] = with 3 μM dopamine, read-out: Antagonist assay Emax
[8] = Dopamine D3, 0.1 μM dopamine = 100%, read-out: Agonist assay Emax
[9] = Dopamine D3, read-out: Agonist assay EC50
[10] = Dopamine D3, with 0.1 μM dopamine, read-out: Antagonist assay Emax
[11] = Dopamine D3, with 0.1 μM dopamine, read-out: Antagonist assay IC50
[12] = 10 μM 5-CT = 100%, read-out: Agonist assay Emax
[13] = with 10 μM 5-CT, read-out: Antagonist assay Emax

Structure (SMILES)	EC50 [1]	Emax [1, 6]	IC50 ([1]; with 3 μM dopamine)	Emax [1, 7]	antagonist activity (in words) [1]	EC50 [2]	Emax [2, 6]	IC50 ([2]; with 3 μM dopamine)	Emax [2, 7]	antagonist activity (in words) [2]	Emax [3, 8]	EC50 [3, 9]	Emax [3, 10]	IC50 [3, 11]	agonist activity (in words) [3]	antagonist activity (in words) [3]	EC50 [4]	Emax [4, 12]	IC50 ([4]; with 10 μM 5-CT)	Emax [4, 13]	also measured
O=C1c2ccccc2OC=C(Cl)N1CCCCN1CC=C(c2ccccn2)CC1 [SUN N4057, 3-chloro-4,5-dihydro-4-{4-[4-(2-pyridyl)-1,2,3,6-tetrahydropyridin-1-yl]butyl}-1,4-benzoxazepin-5-one.dihydrochloride-dihydrate]	> 500 nM	41%	> 500 nM	25%	does not have an antagonist action	> 500 nM	27%	> 500 nM	47%	does not have an antagonist action	77%	2.12 nM	13%	> 500 nM	strong agonist activity; also recorded: has an agonist action	no antagonist activity was exhibited	2.41 nM	100%	> 100 nM	3%	agonist activity (in words) [4]: particularly strong in activity; also recorded: powerful agonist action; Ki ([5]; Dopamine D3, read-out: Ki): 42.8 nM
Cl.Cl.O=c1[nH]c2cccc(C3CCCN(Cc4cncc(-c5ccc(F)cc5)c4)C3)c2o1 (stereo not shown) [7-(1-{[5-(4-fluorophenyl)pyridin-3-yl]methyl}piperidin-3-yl)-1,3-benzoxazol-2(3H)-one dihydrochloride]	> 500 nM	27%	17.9 nM	69%	antagonist activity	> 500 nM	18%	72.9 nM	75%	antagonist activity	69%	1.4 nM	22%	> 500 nM	strong agonist activity	no antagonist activity was exhibited	108 nM	100%	> 20000 nM	14%	Ki ([5]; Dopamine D3, read-out: Ki): 9.07 nM; binding affinity (in words) [5]: comparatively strong binding affinity
Cl.Cl.Fc1ccc(-c2cncc(CNC[C@H]3CCc4ccccc4O3)c2)cc1 [Sarizotan, 1-[(2R)-3,4-dihydro-2H-chromen-2-yl]-N-{[5-(4-fluorophenyl)pyridin-3-yl]methyl}methanamine dihydrochloride]	> 500 nM	5%	66.7 nM	74%	antagonist activity	> 500 nM	2%	13.3 nM	101%	antagonist activity	–	–	–	–	did not exhibit an agonist activity	weak antagonist activity	2.4 nM	100%	> 100 nM	4%	EC50 [3]: > 500 nM; IC50 [3]: 181 nM; Emax ([3]; read-out: Agonist assay Emax): 14%; Emax ([3]; read-out: Antagonist assay Emax): 65%; agonist activity (in words) [4]: particularly strong in activity; Ki [5]: 3.48 nM; binding affinity (in words) [5]: comparatively strong binding affinity
